Data: patent publication US10738076B2, “Lanosterol prodrug compound and preparation method therefor and use thereof” (ZHONGSHAN OPHTHALMIC CENTER, SUN YAT-SEN UNIVERSITY, priority 2017, dated 2020)
Entries after “also recorded” stand apart in the source; their conditions may differ. Where two headings read alike, the source gives them in different places.

Assays:
[1] = ophthalmic drug penetration and drug conversion to lanosterol in vivo (aqueous humor concentration after eye drops); design: species or system New Zealand white rabbits
Protocol: In this study, New Zealand white rabbits (body weight was more than 2 kg, age was more than 12 weeks) were used as experimental animals. Each compound was studied with two New Zealand white rabbits. Each rabbit was instilled with […] eye drops in each eyes three eyes were used to collect aqueous humor samples and one eye was used as a backup. […] After the eye drops was dripped into the rabbit's eyes, the anterior aqueous humor was collected at 0.5, 2, 4 and 6 hours after administration. The volume of each sample was not more than 50 μL. Each animal was given mild anesthesia before collecting samples. Three samples were collected at every time point. The collected aqueous humor samples were stored in dry ice immediately after collection or stored in a refrigerator at −80±10° C. After the sample collection, the animals were euthanized. The concentration of the compound in each sample was determined using a triple quadrupole mass spectrometer (API 4000).

[2] = system: sodium selenite-induced neonatal New Zealand rabbit cataract model; assay: sodium selenite-induced cataract model, slit lamp observation; format: in vivo, neonatal New Zealand rabbits; conditions: eye drops right eye 3 times every day, 42 days, compared with pre-dose
Protocol: (§1) P7 days old neonatal New Zealand rabbits, normal grade, and 5 young rabbits per litter were breast-fed with a mother rabbit.
(§2) The experimental young rabbits were randomly divided into 5 groups with 5 rabbits per group.
(§3) 1) Normal control group (NC): in the P10 day, young rabbits were injected subcutaneously with 0.25 mL physiological saline from the neck, and were not administered after the P15 day.
(§4) 2) Model control group (MC): in the P10 day, young rabbits were injected subcutaneously with sodium selenite solution (in physiological saline) at 20 μmol/kg body weight, and after the P15 day, drug-free blank eyes drops was dripped into the right eye 3 times every day for 42 days.
as §4, with “3) Positive” for “2) Model”, “(PC):” for “(MC):”, “kary uni eye” for “drug-free blank eyes”, “drops (Santen Pharmaceutical Co., Ltd in Japan)” for “drops”
4) Lanosterol eye drops treatment group (LT): in the P10 day, young rabbits were injected subcutaneously with sodium selenite solution (in physiological saline) at 20 μmol/kg body weight, and after the P15 day, lanosterol eye drops was dripped into the right eye 3 times every day for 42 days. […]

[3] = system: sodium selenite-induced neonatal New Zealand rabbit cataract model; assay: sodium selenite-induced cataract model, lens transparency test in vitro; format: in vivo, neonatal New Zealand rabbits; conditions: after 42 days of administration
Protocol: as §1, §2, §3, §4
as §4, with “3) Positive” for “2) Model”, “(PC):” for “(MC):”, “kary uni eye” for “drug-free blank eyes”, “drops (Santen Pharmaceutical Co., Ltd in Japan)” for “drops”
(§5) 4) Lanosterol eye drops treatment group (LT): in the P10 day, young rabbits were injected subcutaneously with sodium selenite solution (in physiological saline) at 20 μmol/kg body weight, and after the P15 day, lanosterol eye drops was dripped into the right eye 3 times every day for 42 days.
as §5, with “5)” for “4)”, “Lanosterol prodrug 026” for “Lanosterol”, “(026):” for “(LT):”, “lanosterol prodrug 026” for “lanosterol”
2) Lens transparency test in vitro: on the last day, the animal's eyeball was dissected, the lens containing the capsule was completely separated, and the lens was placed on a grid paper (2.12×2.12 mm).

[4] = system: lens glutathione peroxidase (GSH-PX) activity; assay: sodium selenite-induced cataract model, lens GSH-PX activity assay; format: in vivo, neonatal New Zealand rabbits; conditions: after 42 days of administration; for effect on lens GSH-PX activity compared to the other treatment groups: 026 vs kary uni p<0.01
Protocol: as §1, §2, §3, §4
as §4, with “3) Positive” for “2) Model”, “(PC):” for “(MC):”, “kary uni eye” for “drug-free blank eyes”, “drops (Santen Pharmaceutical Co., Ltd in Japan)” for “drops”
as §5
as §5, with “5)” for “4)”, “Lanosterol prodrug 026” for “Lanosterol”, “(026):” for “(LT):”, “lanosterol prodrug 026” for “lanosterol”
(§6) 3) Glutathione peroxidase (GSH-PX) activity assay: GSH-PX activity of the isolated rabbit lens in each group was determined by the method provided in the specification of GSH-PX activity detection kit (Nanjing Jiancheng Bioengineering Institute). The experimental data was analyzed by One-Way ANOVA with SPSS statistical software. The LSD method was used to compare the groups, and the statistical difference level was p<0.05.

[5] = system: ultraviolet-induced New Zealand rabbit cataract model; assay: ultraviolet-induced cataract model, slit lamp observation; format: in vivo, New Zealand rabbits; conditions: ultraviolet (313 nm, 24 hours) model, eye drops right eye 3 times every day, 42 days, compared with pre-dose
Protocol: (§7) Adult New Zealand rabbits 2.0-2.5 kg, normal grade, male and female, a total of 25.
(§8) The experimental rabbits were randomly divided into 5 groups with 5 rabbits per group.
(§9) 1) Normal control group (NC): normal feeding, no drug administration.
(§10) 2) Model control group (MC): 313 nm UV irradiation for 24 hours to make model, then drug-free blank eye drops was dripped to the right eye 3 times every day for 42 days.
(§11) 3) Positive control group (PC): 313 nm UV irradiation for 24 hours to make model, then kary uni eye drops (Santen Pharmaceutical Co., Ltd in Japan) was dripped into the right eye 3 times every day for 42 days.
(§12) 4) Lanosterol eye drops treatment group (LT): 313 nm UV irradiation for 24 hours to make model, then lanosterol eye drops was dripped into the right eye 3 times every day for 42 days.
(§13) 5) Lanosterol prodrug 026 eye drops treatment group (026): 313 nm UV irradiation for 24 hours to make model, then the lanosterol prodrug 026 eye drops was dripped into the right eye 3 times every day for 42 days.

[6] = system: ultraviolet-induced New Zealand rabbit cataract model; assay: ultraviolet-induced cataract model, lens transparency test in vitro; format: in vivo, New Zealand rabbits; conditions: after 42 days of administration
Protocol: as §7, §8, §9, §10, §11, §12, §13
2) lens transparency test in vitro: on the last day, the animal's eyeball was dissected, the lens containing the capsule was completely separated, and the lens was placed on a grid paper (2.12×2.12 mm).

[7] = system: lens glutathione peroxidase (GSH-PX) activity; assay: ultraviolet-induced cataract model, lens GSH-PX activity assay; format: in vivo, New Zealand rabbits; conditions: after 42 days of administration; for effect on lens GSH-PX activity compared to the other treatment groups: 026 vs kary uni p<0.05
Protocol: as §7, §8, §9, §10, §11, §12, §13, §6

[8] = system: pre-formed lens protein aggregates; conditions: in vitro at the cellular level; background, published in Nature; cited from earlier work
[9] = system: cataract; conditions: background, published in Nature; cited from earlier work
[10] = 6 hours after 250 nmol dripped into each eye of New Zealand white rabbit
[11] = in vivo, 250 nmol per eye, 0.5 hour after 250 nmol dripped into each eye of New Zealand white rabbit, read-out: Average concentration of the dripped compound itself in the aqueous humor
[12] = in vivo, 250 nmol per eye, 2 hours after 250 nmol dripped into each eye of New Zealand white rabbit, read-out: Average concentration of the dripped compound itself in the aqueous humor
[13] = 0.5 hour after 250 nmol dripped into each eye of New Zealand white rabbit
[14] = 2 hours after 250 nmol dripped into each eye of New Zealand white rabbit
[15] = 4 hours after 250 nmol dripped into each eye of New Zealand white rabbit
[16] = listed as lanosterol prodrug 026
[17] = 026 and kary uni p<0.01, lanosterol p>0.05, listed as lanosterol prodrug 026
[18] = 026 and kary uni p<0.01, lanosterol p>0.05

COC(=O)[C@H](C)NP(=O)(Oc1ccccc1)O[C@H]1CC[C@]2(C)C3=C(CCC2C1(C)C)[C@]1(C)CC[C@H]([C@H](C)CCC=C(C)C)[C@@]1(C)CC3 (stereo partly shown) [Compound 1]
Average concentration of Lanosterol in the aqueous humor after the prodrug was dripped ([1]; 0.5 hour after 250 nmol prodrug dripped into each eye of New Zealand white rabbit): BQL | Average concentration of Lanosterol in the aqueous humor after the prodrug was dripped ([1]; 2 hours after 250 nmol prodrug dripped into each eye of New Zealand white rabbit): BQL | Average concentration of the dripped compound itself in the aqueous humor [1, 10]: BQL | concentration at 0.5 h [1, 11]: 7.5 nM | concentration at 2 h [1, 12]: 8.6 nM

CC(C)=CCC[C@@H](C)[C@H]1CC[C@@]2(C)C3=C(CC[C@]12C)[C@@]1(C)CC[C@H](OC(=O)c2ccc([N+](=O)[O-])cc2)C(C)(C)C1CC3 (stereo partly shown) [Compound 4]
Average concentration of the dripped compound itself in the aqueous humor [1, 13]: BQL | Average concentration of the dripped compound itself in the aqueous humor [1, 14]: BQL | Average concentration of the dripped compound itself in the aqueous humor [1, 15]: BQL | Average concentration of the dripped compound itself in the aqueous humor [1, 10]: BQL

CC(C)=CCC[C@@H](C)[C@H]1CC[C@@]2(C)C3=C(CC[C@]12C)[C@@]1(C)CC[C@H](OC(=O)c2ccccc2O)C(C)(C)C1CC3 (stereo partly shown) [Compound 8]
Average concentration of the dripped compound itself in the aqueous humor [1, 10]: BQL | concentration at 0.5 h [1, 11]: 41 nM | concentration at 2 h [1, 12]: 33.3 nM | concentration at 4 h ([1]; in vivo, 250 nmol per eye, 4 hours after 250 nmol dripped into each eye of New Zealand white rabbit, read-out: Average concentration of the dripped compound itself in the aqueous humor): 25.5 nM | cataract symptoms, slit lamp observation [2, 16]: cataract symptoms were significantly reduced; also recorded: could alleviate the cataract symptoms | lens transparency of the right eye compared to the MC group [3]: significantly higher than that of the MC group | lens transparency of the right eye compared to the NC group [3]: still lower than that of the NC group | lens transparency of the administered right eye compared to the left eye (self-control) [3, 16]: significantly higher than that of the left eye; also recorded: improve lens transparency | lens GSH-PX activity compared to the MC group [4, 17]: could increase the GSH-PX activity of the lens; also recorded: improve lens transparency and lens GSH-PX activity | effect on lens GSH-PX activity compared to the other treatment groups [4]: better than that of kary uni | cataract symptoms, slit lamp observation [5, 16]: cataract symptoms were significantly reduced; also recorded: could alleviate the cataract symptoms | lens transparency of the right eye compared to the MC group [6]: significantly higher than that of the MC group | lens transparency of the right eye compared to the NC group [6]: still lower than that of the NC group | lens transparency of the administered right eye compared to the left eye (self-control) [6, 16]: significantly higher than that of the left eye; also recorded: improve lens transparency | lens GSH-PX activity compared to the MC group [7, 17]: could increase the GSH-PX activity of the lens; also recorded: improve lens transparency and lens GSH-PX activity | effect on lens GSH-PX activity compared to the other treatment groups [7]: better than that of kary uni

CC(C)=CCC[C@@H](C)[C@H]1CC[C@@]2(C)C3=C(CC[C@]12C)[C@@]1(C)CC[C@H](OC(=O)c2ccno2)C(C)(C)C1CC3 (stereo partly shown) [Compound 9]
Average concentration of the dripped compound itself in the aqueous humor [1, 13]: BQL | Average concentration of the dripped compound itself in the aqueous humor [1, 14]: BQL

CC(C)=CCC[C@@H](C)[C@H]1CC[C@@]2(C)C3=C(CC[C@]12C)[C@@]1(C)CC[C@H](OC(=O)c2ncon2)C(C)(C)C1CC3 (stereo partly shown) [Compound 10]
Average concentration of the dripped compound itself in the aqueous humor [1, 13]: BQL | concentration at 2 h [1, 12]: 37.9 nM

CC(=O)Oc1ccccc1C(=O)O[C@H]1CC[C@]2(C)C3=C(CCC2C1(C)C)[C@]1(C)CC[C@H]([C@H](C)CCC=C(C)C)[C@@]1(C)CC3 (stereo partly shown) [Compound 12]
AUC (exposure amount) of the dripped compound itself in the aqueous humor ([1]; 250 nmol dripped into each eye of New Zealand white rabbit): BQL | Average concentration of the dripped compound itself in the aqueous humor [1, 15]: BQL | Average concentration of the dripped compound itself in the aqueous humor [1, 10]: BQL | concentration at 0.5 h [1, 11]: 60 nM | concentration at 2 h [1, 12]: 15.6 nM

CC(C)=CCC[C@@H](C)[C@H]1CC[C@@]2(C)C3=C(CC[C@]12C)[C@@]1(C)CC[C@H](O)C(C)(C)[C@@H]1CC3 [Lanosterol]
concentration at 0.5 h ([1]; aqueous humor, topical, 250 nmol per eye, 0.5 hour after 250 nmol dripped into each eye of New Zealand white rabbit, read-out: Average concentration of the dripped compound itself in the aqueous humor): 106 nM | concentration at 2 h ([1]; aqueous humor, topical, 250 nmol per eye, 2 hours after 250 nmol dripped into each eye of New Zealand white rabbit, read-out: Average concentration of the dripped compound itself in the aqueous humor): 496 nM | concentration at 4 h ([1]; aqueous humor, topical, 250 nmol per eye, 4 hours after 250 nmol dripped into each eye of New Zealand white rabbit, read-out: Average concentration of the dripped compound itself in the aqueous humor): 300 nM | concentration at 6 h ([1]; aqueous humor, topical, 250 nmol per eye, 6 hours after 250 nmol dripped into each eye of New Zealand white rabbit, read-out: Average concentration of the dripped compound itself in the aqueous humor): 225 nM | penetration into the aqueous humor / permeability ([1]; eye drops, rabbit, in words): could penetrate into the aqueous humor | cataract symptoms, slit lamp observation [2]: did not change significantly | lens transparency of the administered right eye compared to the left eye (self-control) [3]: no significant change in lens transparency | lens GSH-PX activity compared to the MC group [4, 18]: no statistical difference compared to the MC group | effect on lens GSH-PX activity compared to the other treatment groups [4]: significantly lower than that of 026 and kary uni | cataract symptoms, slit lamp observation [5]: did not change significantly | lens transparency of the administered right eye compared to the left eye (self-control) [6]: no significant change in lens transparency | lens GSH-PX activity compared to the MC group [7, 18]: no statistical difference compared to the MC group | effect on lens GSH-PX activity compared to the other treatment groups [7]: significantly lower than that of 026 and kary uni | effect on pre-formed lens protein aggregates [8]: significantly reduce pre-formed lens protein aggregates | effect on cataract and lens transparency in vivo [9]: can reverse the condition of cataract
